T/C data for 8 compounds are collected here from PubChem BioAssay AID180 (DTP/NCI, 2004).

Several values for one entry are separate records, joined by “and”; a condition that tells them apart may be missing. Identical values can stand only once.

Usually T/C stands for the ratio of treated to control.

In this assay the test system is BDF1 mice, Adenocarcinoma 755 s.c., tumor weight T/C. Nature of the assay: NCI In Vivo Anticancer Drug Screen. Data for tumor model Adenocarcinoma 755 (subcutaneous) in B6D2F1 (BDF1) mice. Particulars: endpoint: mean tumor weight, schedule: Q01DX011 (ip), higher = larger tumour. As for the experimental part:
The antitumor activity of compounds was measured in mice bearing transplantable tumors. Survival or tumor size were measured and the results are expressed as the measurement made in the treated group (T) divided by the measurement made in the vehicle treated control group (C). The tumor model used in this assay is Adenocarcinoma 755 (subcutaneous) in B6D2F1 (BDF1) mice

[1] abbreviates: dose: 2.0 mg/kg/injection, vehicle: saline.
Where [2] appears, read: dose: 4.0 mg/kg/injection, vehicle: saline.
Where [3] appears, read: dose: 8.0 mg/kg/injection, vehicle: saline.

For the compound `CN(C)[C@@H]1C(=O)C(C(=O)NCNc2nc3n[nH]nc3c(=O)[nH]2)=C(O)[C@@]2(O)C(=O)C3=C(O)c4c(O)cccc4[C@@](C)(O)[C@H]3C[C@@H]12`, the T/C is, setting by setting: (dose: 25.0 mg/kg/injection, vehicle: saline) 89 % of control; (dose: 50.0 mg/kg/injection, vehicle: saline) 93 % of control; (dose: 100.0 mg/kg/injection, vehicle: saline) 79 % of control; (dose: 200.0 mg/kg/injection, vehicle: saline) 40 % of control.

Turning to `CCN(CC)P(=O)(N1CC1)N1CC1`, the T/C reads like this: (dose: 0.5 mg/kg/injection, vehicle: saline) 60 % of control; (dose: 1.0 mg/kg/injection, vehicle: saline) 68 % of control; (dose: 2.0 mg/kg/injection, vehicle: other) 50 % of control; under setting [1], 43 % of control and 47 % of control; (dose: 4.0 mg/kg/injection, vehicle: other) 26 % of control; under setting [2], 18 % of control and 39 % of control. In addition, the T/C (dose: 8.0 mg/kg/injection, vehicle: other) is 14 % of control and the T/C under setting [3] is 10 % of control.

As for `NC(C=O)C(O)C(O)C(O)CO` (stereo not drawn), the T/C reads like this: (dose: 250.0 mg/kg/injection, vehicle: carboxymethylcellulose (CMC)) 104 % of control and 204 % of control; (dose: 500.0 mg/kg/injection, vehicle: carboxymethylcellulose (CMC)) 225 % of control; (dose: 1000.0 mg/kg/injection, vehicle: carboxymethylcellulose (CMC)) 102 % of control and 110 % of control; (dose: 2000.0 mg/kg/injection, vehicle: methylcellulose (MC)) 89 % of control; (dose: 2500.0 mg/kg/injection, vehicle: methylcellulose (MC)) 72 % of control.

On to `O=C(O)CCCc1ccc(N(CCCl)CCCl)cc1`, for which the T/C was 93 % of control (dose: 0.5 mg/kg/injection, vehicle: carboxymethylcellulose (CMC)); 43 % of control (dose: 1.0 mg/kg/injection, vehicle: carboxymethylcellulose (CMC)); 31 % of control (dose: 1.25 mg/kg/injection, vehicle: methylcellulose (MC)); 60 % of control (dose: 1.81 mg/kg/injection, vehicle: carboxymethylcellulose (CMC)); 38 % of control (dose: 1.94 mg/kg/injection, vehicle: carboxymethylcellulose (CMC)); 99 % of control under setting [1]. The T/C was 89 % of control (dose: 2.5 mg/kg/injection, vehicle: methylcellulose (MC)); 34 % of control (dose: 3.63 mg/kg/injection, vehicle: carboxymethylcellulose (CMC)); 37 % of control (dose: 3.88 mg/kg/injection, vehicle: carboxymethylcellulose (CMC)); 49 % of control under setting [2]; 33 % of control (dose: 5.0 mg/kg/injection, vehicle: methylcellulose (MC)); 41 % of control (dose: 5.8 mg/kg/injection, vehicle: carboxymethylcellulose (CMC)). The T/C runs as follows: (dose: 6.2 mg/kg/injection, vehicle: carboxymethylcellulose (CMC)) 75 % of control; (dose: 6.25 mg/kg/injection, vehicle: methylcellulose (MC)) 26 % of control; (dose: 7.25 mg/kg/injection, vehicle: carboxymethylcellulose (CMC)) 30 % of control and 48 % of control; (dose: 7.75 mg/kg/injection, vehicle: carboxymethylcellulose (CMC)) 16 % of control and 29 % of control; under setting [3], 37 % of control; (dose: 9.66 mg/kg/injection, vehicle: carboxymethylcellulose (CMC)) 9 % of control. Also, the T/C by setting is: (dose: 10.0 mg/kg/injection, vehicle: methylcellulose (MC)) 10 % of control; (dose: 10.33 mg/kg/injection, vehicle: carboxymethylcellulose (CMC)) 14 % of control; (dose: 12.5 mg/kg/injection, vehicle: methylcellulose (MC)) 5 % of control; (dose: 14.5 mg/kg/injection, vehicle: carboxymethylcellulose (CMC)) 2 % of control and 6 % of control; (dose: 15.5 mg/kg/injection, vehicle: carboxymethylcellulose (CMC)) 4 % of control; (dose: 1812.0 micrograms/kg/injection, vehicle: carboxymethylcellulose (CMC)) 118 % of control. The T/C (dose: 3625.0 micrograms/kg/injection, vehicle: carboxymethylcellulose (CMC)) is 58 % of control and the T/C (dose: 7250.0 micrograms/kg/injection, vehicle: carboxymethylcellulose (CMC)) is 59 % of control.

For `CC[N+]([O-])(CC)c1n(C)c2c(=O)n(C)c(=O)n(C)c2[n+]1[O-]`, the T/C by setting is: (dose: 30.0 mg/kg/injection, vehicle: methylcellulose (MC)) 93 % of control; (dose: 60.0 mg/kg/injection, vehicle: methylcellulose (MC)) 96 % of control; (dose: 120.0 mg/kg/injection, vehicle: methylcellulose (MC)) 110 % of control; (dose: 240.0 mg/kg/injection, vehicle: methylcellulose (MC)) 70 % of control.

With `CCOc1nc(N)nc2n[nH]nc12`, the T/C (dose: 75.0 mg/kg/injection, vehicle: carboxymethylcellulose (CMC)) is 67 % of control and the T/C (dose: 150.0 mg/kg/injection, vehicle: carboxymethylcellulose (CMC)) was 9 % of control.

For `Nc1nnnc2nc[nH]c12`, where the note is “dose: 12.5 mg/kg/injection, vehicle: carboxymethylcellulose (CMC)”, the T/C was 75 % of control.

In the case of `CC(C)Cn1cnc2c(SCC(=O)O)nc(N)nc21`, the T/C runs as follows: (dose: 25.0 mg/kg/injection, vehicle: methylcellulose (MC)) 114 % of control; (dose: 75.0 mg/kg/injection, vehicle: methylcellulose (MC)) 85 % of control; (dose: 225.0 mg/kg/injection, vehicle: methylcellulose (MC)) 114 % of control.
